In patent US9732093B2, “FLAP modulators” (JANSSEN PHARMACEUTICA NV, priority 2013, dated 2017):

Biological target: human FLAP (Homo sapiens (Human), UniProt P20292)
Test: FLAP binding assay (HTRF format)
Details: human FLAP wild type membranes, HTRF format; Table 6 (additional runs)
Method: The ability of the compounds of the present invention to treat a FLAP-mediated disease and/or disorder, or associated symptoms or complications thereof, was determined using the following procedures. Binding assay data represent the average value obtained from two different assay plates, with samples run in duplicate on each plate. Human whole blood assay data represent a single replicate on an assay plate using whole blood from at least one healthy donor.
Data are expressed as a HTRF ratio.

human FLAP, sequence (P20292 whole entry): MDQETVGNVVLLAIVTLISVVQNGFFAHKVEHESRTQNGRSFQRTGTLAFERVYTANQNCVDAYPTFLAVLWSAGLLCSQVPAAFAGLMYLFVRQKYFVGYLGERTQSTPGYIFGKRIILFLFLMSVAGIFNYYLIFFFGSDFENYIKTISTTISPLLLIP

Row | SMILES | Ki [nM]
1 | Nc1cnc(-c2ccc(C3CCC3)c(OCc3ccc(C(F)(F)F)cc3)c2F)cn1 [Compound 1, 5-(4-Cyclobutyl-2-fluoro-3-{[4-(trifluoromethyl)benzyl]oxy}phenyl)pyrazin-2-amine] | 62.8
2 | Nc1cnc(-c2ccc(C3CCC3)c(OCc3ccccc3C(F)(F)F)c2F)cn1 [Compound 3, 5-(4-Cyclobutyl-2-fluoro-3-{[2-(trifluoromethyl)benzyl]oxy}phenyl)pyrazin-2-amine] | 118
3 | Nc1cnc(-c2ccc(C3CCC3)c(OCc3cccc(C(=O)O)c3)c2F)cn1 [Compound 4, 3-{[3-(5-Aminopyrazin-2-yl)-6-cyclobutyl-2-fluorophenoxy]methyl}benzoic acid] | 5.8
4 | Nc1cnc(-c2ccc(C3CCC3)c(OCc3ccc(C(=O)O)cc3)c2F)cn1 [Compound 5, 4-{[3-(5-Aminopyrazin-2-yl)-6-cyclobutyl-2-fluorophenoxy]methyl}benzoic acid] | 10.2
5 | CS(=O)(=O)c1cccc(COc2c(C3CCC3)ccc(-c3cnc(N)cn3)c2F)c1 [Compound 6, 5-(4-Cyclobutyl-2-fluoro-3-{[3-(methylsulfonyl)benzyl]oxy}phenyl)pyrazin-2-amine] | 13.6
6 | CS(=O)(=O)c1ccc(COc2c(C3CCC3)ccc(-c3cnc(N)cn3)c2F)cc1 [Compound 7, 5-(4-Cyclobutyl-2-fluoro-3-{[4-(methylsulfonyl)benzyl]oxy}phenyl)pyrazin-2-amine] | 7.4
7 | Nc1cnc(-c2ccc(C3CCC3)c(OCc3cccnc3)c2F)cn1 [Compound 13, 5-[4-Cyclobutyl-2-fluoro-3-(pyridin-3-ylmethoxy)phenyl]pyrazin-2-amine] | 27.1
8 | NC(=O)c1cccc(COc2c(C3CCC3)ccc(-c3cnc(N)cn3)c2F)c1 [Compound 17, 3-{[3-(5-Aminopyrazin-2-yl)-6-cyclobutyl-2-fluorophenoxy]methyl}benzamide] | 12.5
9 | N#Cc1ccccc1COc1c(C2CCC2)ccc(-c2cnc(N)cn2)c1F [Compound 18, 2-{[3-(5-Aminopyrazin-2-yl)-6-cyclobutyl-2-fluorophenoxy]methyl}benzonitrile] | 59
10 | Nc1cnc(-c2ccc(C3CCC3)c(OCc3ccccn3)c2F)cn1 [Compound 24, 5-[4-Cyclobutyl-2-fluoro-3-(pyridin-2-ylmethoxy)phenyl]pyrazin-2-amine] | 16.2
11 | Nc1cnc(-c2ccc(C3CCC3)c(OCc3ccc(F)cc3)c2F)cn1 [Compound 28, 5-{4-Cyclobutyl-2-fluoro-3-[(4-fluorobenzyl)oxy]phenyl}pyrazin-2-amine] | 66.2
12 | Nc1cnc(-c2ccc(C3CCC3)c(OCc3ccc(F)c(F)c3)c2F)cn1 [Compound 33, 5-{4-Cyclobutyl-3-[(3,4-difluorobenzyl)oxy]-2-fluorophenyl}pyrazin-2-amine] | ~250
13 | Nc1cnc(-c2ccc(C3CCC3)c(OCc3cc(Cl)ccc3Cl)c2F)cn1 [Compound 38, 5-{4-Cyclobutyl-3-[(2,5-dichlorobenzyl)oxy]-2-fluorophenyl}pyrazin-2-amine] | ~250
14 | Nc1cnc(-c2ccc(C3CCC3)c(OCc3ccccc3C(=O)O)c2F)cn1 [Example 46, 2-{[3-(5-Aminopyrazin-2-yl)-6-cyclobutyl-2-fluorophenoxy]methyl}benzoic acid] | 6.9
15 | CC(C)(C)OC(=O)COc1c(C2CCC2)ccc(-c2cnc(N)cn2)c1F [Example 49, tert-Butyl [3-(5-aminopyrazin-2-yl)-6-cyclobutyl-2-fluorophenoxy]acetate] | ~134
16 | Nc1cnc(-c2ccc(C3CCC3)c(OCC(=O)O)c2F)cn1 [Example 50, [3-(5-Aminopyrazin-2-yl)-6-cyclobutyl-2-fluorophenoxy]acetic acid] | 787
17 | CS(=O)(=O)N1CCC(COc2c(C3CCC3)ccc(-c3cnc(N)cn3)c2F)CC1 [Example 68, 5-(4-Cyclobutyl-2-fluoro-3-{[1-(methylsulfonyl)piperidin-4-yl]methoxy}phenyl)pyrazin-2-amine] | 136
18 | Cc1ccnc(Oc2c(C3CCC3)ccc(-c3cnc(N)cn3)c2F)n1 [Example 69, 5-{4-Cyclobutyl-2-fluoro-3-[(4-methylpyrimidin-2-yl)oxy]phenyl}pyrazin-2-amine] | 14
19 | Cc1nc(COc2c(C3CCC3)ccc(-c3cnc(N)cn3)c2F)no1 [Example 70, 5-{4-Cyclobutyl-2-fluoro-3-[(5-methyl-1,2,4-oxadiazol-3-yl)methoxy]phenyl}pyrazin-2-amine] | 34.2
20 | CC(C)(C)OC(=O)N1CCC(COc2c(C3CCC3)ccc(-c3cnc(N)cn3)c2F)CC1 [Example 74, tert-Butyl 4-{[3-(5-aminopyrazin-2-yl)-6-cyclobutyl-2-fluorophenoxy]methyl}piperidine-1-carboxylate] | 175
21 | Nc1cnc(-c2ccc(C3CCC3)c(OCc3cc(S(F)(F)(F)(F)F)ccc3F)c2F)cn1 [Example 77, 5-(4-Cyclobutyl-2-fluoro-3-{[2-fluoro-5-(pentafluoro-lambda˜6˜-sulfanyl)benzyl]oxy}phenyl)pyrazin-2-amine] | ~200
22 | Nc1cnc(-c2ccc(C3CCC3)c(OCC3CCC3)c2F)cn1 [Example 82, 5-[4-Cyclobutyl-3-(cyclobutylmethoxy)-2-fluorophenyl]pyrazin-2-amine] | 208
23 | Nc1cnc(-c2ccc(C3CCC3)c(OCc3ccc(C(=O)O)o3)c2F)cn1 [Example 85, 5-{[3-(5-Aminopyrazin-2-yl)-6-cyclobutyl-2-fluorophenoxy]methyl}furan-2-carboxylic acid] | 28.1
24 | Cc1cc(N)nc(Oc2c(C3CCC3)ccc(-c3cnc(N)cn3)c2F)n1 [Example 86, 2-[3-(5-Aminopyrazin-2-yl)-6-cyclobutyl-2-fluorophenoxy]-6-methylpyrimidin-4-amine] | 6.2
25 | Nc1cnc(-c2ccc(C3CCC3)c(Oc3nccc(-c4ccccc4)n3)c2F)cn1 [Example 87, 5-{4-Cyclobutyl-2-fluoro-3-[(4-phenylpyrimidin-2-yl)oxy]phenyl}pyrazin-2-amine] | 2.1
26 | Cc1cc(C)nc(Oc2c(C3CCC3)ccc(-c3cnc(N)cn3)c2F)n1 [Example 89, 5-{4-Cyclobutyl-3-[(4,6-dimethylpyrimidin-2-yl)oxy]-2-fluorophenyl}pyrazin-2-amine] | 5.3

Further molecules by falling Ki, results first:

Row | Ki [nM] | SMILES
27 | 1960 | Nc1cnc(-c2ccc(C3CCC3)c(OCC3CCCNC3)c2F)cn1 (racemic) [Example 299, racemic 5-[4-Cyclobutyl-2-fluoro-3-(piperidin-3-ylmethoxy)phenyl]pyrazin-2-amine]
28 | 421 | Nc1cnc(-c2ccc(C3CCC3)c(OCC3CCCCC3)c2F)cn1 [Example 71, 5-[4-Cyclobutyl-3-(cyclohexylmethoxy)-2-fluorophenyl]pyrazin-2-amine]
29 | 275 | CCOC(=O)c1ccc(COc2c(C3CCC3)ccc(-c3cnc(N)cn3)c2F)o1 [Example 73, Ethyl 5-{[3-(5-aminopyrazin-2-yl)-6-cyclobutyl-2-fluorophenoxy]methyl}furan-2-carboxylate]
30 | ~89.9 | CC(=O)c1ccc(COc2c(C3CCC3)ccc(-c3cnc(N)cn3)c2F)cc1 [Compound 12, 1-(4-{[3-(5-Aminopyrazin-2-yl)-6-cyclobutyl-2-fluorophenoxy]methyl}phenyl)ethanone]
31 | 83.9 | Nc1cnc(-c2ccc(C3CCC3)c(O)c2F)cn1 [B, 3-(5-Aminopyrazin-2-yl)-6-cyclobutyl-2-fluorophenol]
32 | 53.8 | CC(C)c1ccnc(Oc2c(C3CCC3)ccc(-c3cnc(N)cn3)c2F)n1 [Example 90, 5-(4-Cyclobutyl-2-fluoro-3-{[4-(1-methylethyl)pyrimidin-2-yl]oxy}phenyl)pyrazin-2-amine]
33 | 52.6 | COc1c(C2CCC2)ccc(-c2cnc(N)cn2)c1F [A, 5-(4-Cyclobutyl-2-fluoro-3-methoxyphenyl)pyrazin-2-amine]
34 | 44.5 | Nc1cnc(-c2ccc(C3CCC3)c(OCc3ccccc3)c2F)cn1 [Example 83, 5-[3-(Benzyloxy)-4-cyclobutyl-2-fluorophenyl]-pyrazin-2-amine]
35 | 33.5 | Nc1cnc(-c2ccc(C3CCC3)c(OCc3ccccc3F)c2F)cn1 [Compound 30, 5-{4-Cyclobutyl-2-fluoro-3-[(2-fluorobenzyl)oxy]phenyl}pyrazin-2-amine]
36 | 24.6 | Nc1cnc(-c2ccc(C3CCC3)c(OCc3cccc(F)c3)c2F)cn1 [Compound 29, 5-{4-Cyclobutyl-2-fluoro-3-[(3-fluorobenzyl)oxy]phenyl}pyrazin-2-amine]
37 | 23.7 | Nc1cnc(-c2ccc(C3CCC3)c(OCC3CC3)c2F)cn1 [Example 72, 5-[4-Cyclobutyl-3-(cyclopropylmethoxy)-2-fluorophenyl]pyrazin-2-amine]
38 | 22.6 | Nc1cnc(-c2ccc(C3CCC3)c(OCc3ccncc3)c2F)cn1 [Compound 14, 5-[4-Cyclobutyl-2-fluoro-3-(pyridin-4-ylmethoxy)phenyl]pyrazin-2-amine]
39 | 19.9 | N#Cc1cccc(COc2c(C3CCC3)ccc(-c3cnc(N)cn3)c2F)c1 [Compound 16, 3-{[3-(5-Aminopyrazin-2-yl)-6-cyclobutyl-2-fluorophenoxy]methyl}benzonitrile]
40 | 6.4 | CNS(=O)(=O)c1ccc(COc2c(C3CCC3)ccc(-c3cnc(N)cn3)c2F)cc1 [Compound 27, 4-{[3-(5-Aminopyrazin-2-yl)-6-cyclobutyl-2-fluorophenoxy]methyl}-N-methylbenzenesulfonamide]
41 | 3.8 | NC(=O)c1ccccc1COc1c(C2CCC2)ccc(-c2cnc(N)cn2)c1F [Compound 19, 2-{[3-(5-Aminopyrazin-2-yl)-6-cyclobutyl-2-fluorophenoxy]methyl}benzamide]
42 | 3.7 | Nc1cnc(-c2ccc(C3CCC3)c(OCc3ccc(CC(=O)O)cc3)c2F)cn1 [Compound 23, (4-{[3-(5-Aminopyrazin-2-yl)-6-cyclobutyl-2-fluorophenoxy]methyl}phenyl)acetic acid]
43 | 3.5 | CSc1ccnc(Oc2c(C3CCC3)ccc(-c3cnc(N)cn3)c2F)n1 [Example 88, 5-(4-Cyclobutyl-2-fluoro-3-{[4-(methylsulfanyl)pyrimidin-2-yl]oxy}phenyl)pyrazin-2-amine]
